Results taken from ChEMBL document CHEMBL1201862, “PubChem BioAssay data set” (2004).
Activity calls are given as the source filed them.

What was measured:
[1] = target: Induced myeloid leukemia cell differentiation protein Mcl-1 (Homo sapiens, UniProt Q07820); assay type: functional
[2] = HEp-2 cell cytotoxicity, dose response, cytotoxicity control for RSV inhibitor project, HTS (AID 2410); assay type: functional; conditions: human respiratory syncytial virus
[3] = tested on: P388/ADR; assay: cells; assay type: functional; conditions: Mus musculus
[4] = tested on: SN12K1; assay: cells; assay type: functional; conditions: Homo sapiens
[5] = Shn3 3'UTR reporter inhibitors, dose response, cell-based, Clone20 osteoblasts, firefly luciferase, cherry-picked (AID 624132); assay type: functional;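 also: firefly luciferase luminescence from reporter carrying the Shn3 3'UTR in osteoblasts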
[6] = NIH-3T3 fibroblast cytotoxicity, dose response, cytotoxicity control, cell-based, fluorescence, Alamar Blue, secondary assay (AID 2327); assay type: functional;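 also: NIH-3T3 mouse fibroblasts cultured with fluconazole at 8 µg/mL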
[7] = C. albicans growth with fluconazole, confirmation, fluorescence, retest (AID 2467); assay type: functional, cell-based
[8] = target: T1, Heat shock factor protein 1 (Mus musculus, UniProt P38532); assay: HSF1 potentiators in luciferase reporter cells, confirmation, cell-based, NIH3T3, luminescence, dose retest (AID 435004); assay type: functional;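 also: stress induced by proteasome inhibitor MG132 added 30 min after compound; luciferase reporter driven by HSF1 response element in NIH3T3 cells; actives raise luminescence as potentiators of the MG132 stress response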
T1 sequence (P38532 whole entry): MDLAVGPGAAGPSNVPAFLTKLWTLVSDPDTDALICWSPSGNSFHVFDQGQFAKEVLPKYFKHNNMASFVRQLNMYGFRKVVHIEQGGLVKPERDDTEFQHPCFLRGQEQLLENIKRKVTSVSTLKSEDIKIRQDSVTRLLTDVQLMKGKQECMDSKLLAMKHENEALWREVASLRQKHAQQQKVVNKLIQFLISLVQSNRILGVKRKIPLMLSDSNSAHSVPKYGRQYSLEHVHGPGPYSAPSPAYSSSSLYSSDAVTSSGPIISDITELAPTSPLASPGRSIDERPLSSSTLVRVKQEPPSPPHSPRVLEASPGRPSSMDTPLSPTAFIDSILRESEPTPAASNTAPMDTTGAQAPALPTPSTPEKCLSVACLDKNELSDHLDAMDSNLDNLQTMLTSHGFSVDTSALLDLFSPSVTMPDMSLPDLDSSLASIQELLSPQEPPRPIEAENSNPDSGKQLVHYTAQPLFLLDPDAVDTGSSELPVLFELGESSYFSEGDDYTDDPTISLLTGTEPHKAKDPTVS

[9] = target: T2, Corticotropin-releasing factor receptor 2/Corticotropin-releasing factor-binding protein (Homo sapiens, UniProt P24387+Q13324); assay: Dose Response confirmation of uHTS hits for small molecule antagonists of the CRF-binding protein and CRF-R2 receptor complex.; assay type: functional; conditions: read-out: IC50_Mean
T2 sequence (Q13324 whole entry): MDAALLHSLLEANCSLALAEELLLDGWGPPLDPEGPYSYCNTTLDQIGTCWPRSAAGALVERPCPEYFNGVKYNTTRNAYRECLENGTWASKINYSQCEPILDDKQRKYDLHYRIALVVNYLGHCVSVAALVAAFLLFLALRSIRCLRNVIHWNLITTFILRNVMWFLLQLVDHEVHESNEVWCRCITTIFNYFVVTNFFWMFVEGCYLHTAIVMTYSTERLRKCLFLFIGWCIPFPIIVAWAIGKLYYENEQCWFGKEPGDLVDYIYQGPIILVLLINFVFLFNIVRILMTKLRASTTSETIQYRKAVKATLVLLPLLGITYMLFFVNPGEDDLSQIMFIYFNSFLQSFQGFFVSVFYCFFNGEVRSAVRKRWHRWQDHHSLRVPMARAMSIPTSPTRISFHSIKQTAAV
T2 sequence (P24387 whole entry): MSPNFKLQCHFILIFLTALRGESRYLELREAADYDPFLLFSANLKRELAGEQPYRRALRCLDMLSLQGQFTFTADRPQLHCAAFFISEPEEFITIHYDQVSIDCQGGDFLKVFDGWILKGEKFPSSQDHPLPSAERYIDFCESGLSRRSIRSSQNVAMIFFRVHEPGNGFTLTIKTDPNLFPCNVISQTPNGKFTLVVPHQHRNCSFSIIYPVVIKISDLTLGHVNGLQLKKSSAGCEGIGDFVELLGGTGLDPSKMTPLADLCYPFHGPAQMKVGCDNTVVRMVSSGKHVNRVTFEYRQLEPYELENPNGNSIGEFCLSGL

[10] = target: T2, Corticotropin-releasing factor receptor 2/Corticotropin-releasing factor-binding protein; assay: activators of CRF receptor 2 with binding protein – uHTS hits, confirmation (AID 602473); assay type: functional; conditions: read-out: EC50_Mean
[11] = inhibitors of intracellular T. cruzi replication, confirmation, NIH3T3 host cells, beta-gal luminescence (AID 2044); assay type: functional, cell-based;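 also: intracellular parasites grown in NIH/3T3 mouse fibroblasts as host cells; luminescent beta-galactosidase reporter signal from transgenic T. cruzi replicating inside host cells; inhibitors lower the luminescence signal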
[12] = cytotoxicity toward NIH3T3 fibroblasts, dose response, counter-screen, cell-based, ATP luminescence, mouse fibroblasts (AID 2010); assay type: functional;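 also: cells exposed to compound for about 90 hours before reading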
[13] = growth suppression of PTEN-null colon cells, dose response, cell-based, HCT116 PTEN knockout (AID 1047); assay type: functional;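 also: HCT116 colon tumor cells with PTEN knocked out; cells exposed to compound for 60 hours before readout; potency for loss of cell viability measured by luminescence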
[14] = target: Cytochrome P450 2C19 (Homo sapiens, UniProt P33261); assay: Cytochrome panel assay with activity outcomes. Panel member name: p450-cyp2c19 Compounds with AC50 equal or less than 10 uM are considered active; assay type: functional; conditions: read-out: AC50
[15] = target: T3, Cytochrome P450 1A2 (Homo sapiens, UniProt P05177);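 also: PubChem cytochrome P450 panel assay, CYP1A2 panel member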
T3 sequence (P05177 whole entry): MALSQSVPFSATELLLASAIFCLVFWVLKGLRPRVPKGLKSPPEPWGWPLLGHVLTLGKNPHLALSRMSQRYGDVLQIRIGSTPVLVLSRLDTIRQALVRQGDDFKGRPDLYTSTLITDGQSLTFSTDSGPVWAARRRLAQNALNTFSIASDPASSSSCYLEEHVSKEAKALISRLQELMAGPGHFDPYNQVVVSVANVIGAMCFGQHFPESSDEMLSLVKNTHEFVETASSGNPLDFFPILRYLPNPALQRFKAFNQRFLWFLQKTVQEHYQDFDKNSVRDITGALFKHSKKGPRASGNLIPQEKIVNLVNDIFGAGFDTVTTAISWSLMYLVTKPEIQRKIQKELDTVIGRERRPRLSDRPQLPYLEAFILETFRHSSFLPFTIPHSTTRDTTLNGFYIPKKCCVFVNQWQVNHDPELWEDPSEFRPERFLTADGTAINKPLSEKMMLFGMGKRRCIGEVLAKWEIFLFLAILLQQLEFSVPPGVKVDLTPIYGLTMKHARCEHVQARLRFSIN

[16] = target: Cytochrome P450 3A4 (Homo sapiens, UniProt P08684);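 also: CYP3A4 tested as one member of a cytochrome P450 panel screen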
Cytochrome P450 3A4, sequence (P08684 whole entry): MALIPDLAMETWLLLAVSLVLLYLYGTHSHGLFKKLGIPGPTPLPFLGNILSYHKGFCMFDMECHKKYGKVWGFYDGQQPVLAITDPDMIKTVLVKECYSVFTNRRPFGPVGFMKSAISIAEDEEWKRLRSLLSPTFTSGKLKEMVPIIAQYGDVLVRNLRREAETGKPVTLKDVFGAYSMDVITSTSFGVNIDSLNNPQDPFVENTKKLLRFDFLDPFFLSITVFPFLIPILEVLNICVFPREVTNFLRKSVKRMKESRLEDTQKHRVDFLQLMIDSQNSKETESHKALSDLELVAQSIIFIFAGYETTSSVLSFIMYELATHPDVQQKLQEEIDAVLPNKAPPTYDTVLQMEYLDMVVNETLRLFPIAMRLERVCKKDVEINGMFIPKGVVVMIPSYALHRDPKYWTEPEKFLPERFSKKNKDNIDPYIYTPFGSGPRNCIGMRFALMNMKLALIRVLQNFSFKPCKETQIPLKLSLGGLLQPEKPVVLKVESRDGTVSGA

Induced myeloid leukemia cell differentiation protein Mcl-1, sequence (Q07820 whole entry): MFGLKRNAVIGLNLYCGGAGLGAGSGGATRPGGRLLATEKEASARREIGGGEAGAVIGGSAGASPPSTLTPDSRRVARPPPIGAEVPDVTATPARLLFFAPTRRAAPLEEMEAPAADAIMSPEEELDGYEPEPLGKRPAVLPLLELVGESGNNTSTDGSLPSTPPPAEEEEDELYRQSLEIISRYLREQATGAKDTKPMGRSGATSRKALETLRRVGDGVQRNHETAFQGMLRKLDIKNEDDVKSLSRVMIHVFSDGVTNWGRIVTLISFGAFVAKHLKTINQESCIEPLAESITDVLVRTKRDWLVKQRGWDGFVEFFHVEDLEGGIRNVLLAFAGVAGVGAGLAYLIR
Cytochrome P450 2C19, sequence (P33261 whole entry): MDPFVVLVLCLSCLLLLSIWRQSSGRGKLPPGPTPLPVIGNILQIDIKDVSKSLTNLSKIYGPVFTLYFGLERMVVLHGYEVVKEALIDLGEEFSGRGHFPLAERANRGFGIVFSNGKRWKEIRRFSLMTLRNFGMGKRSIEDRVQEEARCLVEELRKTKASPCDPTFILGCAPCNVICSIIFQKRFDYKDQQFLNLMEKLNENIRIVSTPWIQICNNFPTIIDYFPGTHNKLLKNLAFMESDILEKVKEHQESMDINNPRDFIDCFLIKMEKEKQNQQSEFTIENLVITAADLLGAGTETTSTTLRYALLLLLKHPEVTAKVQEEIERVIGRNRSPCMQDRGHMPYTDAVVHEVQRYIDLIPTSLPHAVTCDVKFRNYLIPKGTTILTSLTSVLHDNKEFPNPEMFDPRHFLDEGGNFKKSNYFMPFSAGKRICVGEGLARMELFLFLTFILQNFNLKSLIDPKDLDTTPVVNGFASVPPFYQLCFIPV

| Compound | CC50 [2] | EC50 [6] | EC50 [7] | other results |
| --- | --- | --- | --- | --- |
| CC(=O)Nc1sc(N/N=C\c2ccc(O)cc2)nc1-c1cccs1 | – | – | – | IC50 [1]: 2.4 µM (active) |
| COCCOC(=O)C1=C(C)N(Cc2ccccc2)C(=O)NC1c1ccc(OC)cc1 (stereo unspecified) | 23.2 µM (active) | – | – | – |
| COc1cc(/C=C(\C#N)C(N)=O)cc(Br)c1O | – | – | – | GI50 [3]: > 100 µM (inactive); GI50 [4]: 95.3 µM (inactive) |
| CCS(=O)(=O)c1ccc2oc(SCC(=O)N3CCCCC3)nc2c1 | – | – | – | AC50 [5]: > 70 µM (inactive) |
| COc1cc(NC(=S)N2CCN(S(=O)(=O)c3ccccc3)CC2)cc(OC)c1 | – | > 160 µM (inconclusive) | > 38 µM (not active) | – |
| CCOC(=O)C1CCCN(C(=O)c2ccc(Cl)c(S(=O)(=O)N3CCCCC3)c2)C1 (stereo unspecified) | – | – | – | EC50 [8]: > 260 µM (inactive); IC50 [9]: > 47.1 µM (inactive); EC50 [10]: > 53 µM (inactive) |
| O=[N+]([O-])c1ccc(N=Nc2c(O)[nH]c3ccc(F)cc23)cc1 | 26.1 µM (active) | – | – | – |
| O=C(NCc1ccc(F)cc1)c1ccc(CS(=O)(=O)Cc2ccccc2F)o1 | – | > 150 µM (inactive) | 6.51 µM (active) | – |
| CCC(Oc1ccccc1)C(=O)Nc1ncc([N+](=O)[O-])s1 (stereo unspecified) | – | > 160 µM (inactive) | 1.5 µM (active) | – |
| O=C(NC1CCCCC1)C(c1ccncc1)N(Cc1ccccc1)C(=O)c1ccc(-c2ccccc2)[nH]1 (stereo unspecified) | 7.92 µM (active) | – | – | EC50 [11]: 413 nM (active); EC50 [12]: > 60 µM (not active) |
| O=C(COC(=O)c1c2c(nc3ccccc13)CCCC2)Nc1ccc2c(c1)OCO2 | – | – | – | EC50 [13]: 44.5 µM (active) |
| Cc1nc2sc(C(c3cccc(F)c3)N3CCCC(C)C3)c(O)n2n1 (stereo unspecified) | – | > 150 µM (inactive) | 1.82 µM (active) | – |
| O=C1NC2(CCC3(CC2)OCCO3)NN1c1ccccc1 | – | > 160 µM (inconclusive) | > 38 µM (not active) | – |
| Cc1cc(C(=O)N/N=C/c2ccc(O)c([N+](=O)[O-])c2)c(C)n1-c1ccc(F)cc1 | – | – | – | IC50 [1]: 3.74 µM (active) |
| CC(C)(C)c1ccc(C2CC2C(=O)N/N=C\c2cc3ccccc3nc2Cl)cc1 (stereo unspecified) | 20.1 µM (active) | – | – | AC50 [14]: 11.2 µM (inconclusive); AC50 [15]: 28.2 µM (inconclusive); AC50 [16]: 15.8 µM (inconclusive) |
| COC(=O)c1ccc(Cn2cnc3c(sc4nc(N5CCOCC5)c5c(c43)CCCC5)c2=O)o1 | > 50 µM (active) | – | – | – |
| CCCOc1cccc(C(=O)N/N=C/c2coc3ccccc3c2=O)c1 | – | 28.2 µM (active) | > 38 µM (not active) | – |
| CC(=O)Oc1ccc(NC(=O)CSc2ccccc2)cc1 | – | – | – | IC50 [1]: < 0.4 µM (not active) |
| Cc1ccc(-c2nnn(CC(=O)N(Cc3ccco3)C(C(=O)NC(C)(C)C)c3ccncc3)n2)o1 (stereo unspecified) | – | > 150 µM (inactive) | > 38 µM (not active) | – |
| N#Cc1c(NC(=O)CSC2=NCCS2)sc2c1CCCC2 | 22.5 µM (active) | – | – | – |
| Cc1ccc(S(=O)(=O)N2CCC(Oc3cccc(C(F)(F)F)c3)CC2)cc1 | 16.5 µM (active) | – | – | – |
